Assay results as given in US10815231B2, “[1,2,4] triazolo [1,5-a] pyridine derivative and crystalline form thereof” (WEST CHINA HOSPITAL, SICHUAN UNIVERSITY, priority 2016, dated 2020).
Several values for one entry are separate records, joined by “and”; a condition that tells them apart may be missing. Equal values may be shown once.

Experiments:
A549 cells = test: MTT detection method, inhibitory effect against A549 cells; assay type: cell-based; conditions: 5000 cells/well, treatment 48 h; for The mean inhibitory ratio (%): mean of three; for The inhibitory ratio (%) for three parallel assays: single parallel assays
Excerpt: (§1) MTT detection method was used, and MTT is a yellow compound and a dye accepting hydrogen ions, and can be used as the respiratory chain in mitochondria of viable cells. Under the action of succinate dehydrogenase and cytochrome C, the tetrazolium ring broke to form blue formanzan crystal, and the formation amount of formanzan crystal was only directly proportional to the viable counts. The formanzan crystal formed by reduction can dissolve in dimethyl sulfoxide (DMSO), and the optical density (OD) value can be determined at 490 nm using ELISA, to reflect the viable counts.
(§2) Lung cancer cell lines: A549 and H1299.
(§3) Experimental materials: lung cancer cell lines, instruments and tools for cell culture, MTT, and the compound mother liquid (10 mmol/L).
(§4) (3-1) Cell lines A549 and H1299 were recovered, and when the cells were in good conditions, namely cells grew to about 80% after one passage (i.e. the logarithmic growth phase), the cells were planked (96-well plate).
(§5) (3-2) Firstly, cells were collected, and the concentration of cell suspension was adjusted with counting chamber. Cells were seeded in 96-well plate at 1000-10000 cells/well, and the detailed cell numbers in each well were dependent on the growth rate of different cells and the action time of drugs. A549 cells were seeded at 5000 cells, while H1299 cells were also seeded at 5000 cells, 200 μl for each well (100 μl cell suspension+100 μl drug dilution at different concentration gradient). The edge wells (36) were added 200 μl culture media (for prevention of edge effect).
(§6) (3-3) After planking and adding drugs, the plate was treated at 24 h, 48 h, and 72 h, and then for coloration, each well was added 200 μl culture media containing 20 μl MTT solution (5 mg/mL). The plate was continually cultured for 1-4 hours, and the culture supernatant fluid in each well was carefully absorbed. For suspension cells, the culture supernatant fluid in each well need be centrifuged before drawing. 150 μl DMSO was added to each well, and the plate was shaken on a shaking table for 15-20 min, to allow the crystals to be completely dissolved.
(§7) (3-4) Colorimetry: The colorimetry was performed by ELISA, and the optical absorption value of each well was tested at a wavelength of 490 nm or 570 nm, and the result was recorded.
(§8) (3-5) Calculation Inhibition ratio=(the control−the drug)/the control×100%
(§9) IC50 (50% inhibitory concentration) can be calculated by spass software based on the inhibitory ratio at different concentration.

H1299 cells = test: MTT detection method, inhibitory effect against H1299 cells; assay type: cell-based; conditions: 5000 cells/well, treatment 48 h; for The mean inhibitory ratio (%): mean of three; for The inhibitory ratio (%) for three parallel assays: single parallel assays
Excerpt: as §1, §2, §3, §4, §5, §6, §7, §8, §9

SMILES	The mean inhibitory ratio (%) (A549 cells; 25 μm)	The inhibitory ratio (%) for three parallel assays (A549 cells; 25 μm)	The mean inhibitory ratio (%) (A549 cells; 50 μm)	The inhibitory ratio (%) for three parallel assays (A549 cells; 50 μm)	The mean inhibitory ratio (%) (A549 cells; 100 μm)	The inhibitory ratio (%) for three parallel assays (A549 cells; 100 μm)	The mean inhibitory ratio (%) (H1299 cells; 25 μm)	The inhibitory ratio (%) for three parallel assays (H1299 cells; 25 μm)	The mean inhibitory ratio (%) (H1299 cells; 50 μm)	The inhibitory ratio (%) for three parallel assays (H1299 cells; 50 μm)	The mean inhibitory ratio (%) (H1299 cells; 100 μm)	The inhibitory ratio (%) for three parallel assays (H1299 cells; 100 μm)	The mean inhibitory ratio (%) (A549 cells; 40 μm)	The inhibitory ratio (%) for three parallel assays (A549 cells; 40 μm)	The mean inhibitory ratio (%) (H1299 cells; 80 μm)	The inhibitory ratio (%) for three parallel assays (H1299 cells; 80 μm)
Nc1nc2cccc(-c3ccc(CN4CCOCC4)cc3)n2n1 [Compound 1, 2-amino-5-[4-(4-morpholinylmethyl)phenyl]-[1,2,4]triazolo[1,5-a]pyridine]	10	10% and 9%	29	28% and 31% and 29%	31	31% and 30%	62	63% and 61%	95	93% and 94% and 97%	85	86% and 84%	–	–	–	–
Ic1nc2cccc(-c3ccc(CN4CCOCC4)cc3)n2n1 [Compound 2, 2-iodo-5-[4-(4-morpholinylmethyl)phenyl]-[1,2,4]triazolo[1,5-a]pyridine]	27	26% and 25% and 30%	24	23% and 27%	–	–	–	–	31	32% and 31% and 29%	31	32% and 29%	22	21% and 22%	33	33% and 32%
N#Cc1nc2cccc(-c3ccc(CN4CCOCC4)cc3)n2n1 [Compound 3, 2-cyano-5-[4-(4-morpholinylmethyl)phenyl]-[1,2,4]triazolo[1,5-a]pyridine]	22	20% and 26%	25	24% and 27%	–	–	–	–	32	33% and 32%	34	33% and 34% and 35%	22	22% and 24% and 20%	32	32%
